We go through one compound from patent US20180015167A1, “CROSSLINKABLE TREHALOSE FOR THE COVALENT INCORPORATION IN HYDROGELS AND METHODS OF USE” (INVIVO THERAPEUTICS CORPORATION, priority 2013, published 2018).

Each structure is given as a SMILES string.

The nature of the series: Solubility of hydrogel precursors in water / aqueous buffer. Type of series: physicochemical. As to the method:
Hydrogels formed by mixing trehalose diacrylate and thiol-containing 4-arm PEG of molecular weight 5000 (4arm-PEG5k-SH). Briefly, trehalose diacrylate was dissolved in PBS (pH7.4, 1.06 mM potassium phosphate monobasic, 150 mM sodium chloride, 2.97 mM sodium phosphate dibasic) to prepare a trehalose-containing precursor solution at a concentration of 50 mg/ml. 9.42 mg 4arm-PEG5k-SH (0.0075 mmol thiols) was dissolved in 66.1 μl PBS and the solution was mixed with 33.9 μl trehalose diacrylate solution (1.7 mg, 1 molar equivalents based on thiols) and by vortexing.
Hydrogels formed by mixing ethoxylated-trimethylolpropan tri(thioglycolate) (TMPE-TGA), PEG diacrylate, and varying amounts of trehalose diacrylate. The following protocol has been used for gel formulation at the 150 μl scale. Briefly, TMPE-TGA was dissolved in PBS to prepare a 40 wt % thiol-containing precursor solution. Trehalose diacrylate was dissolved in PBS to prepare a trehalose-containing precursor solution at a concentration of 40 mg/ml. 10.875 mg PEG diacrylate of molecular weight 700 (PEGDA700, 0.75 molar equivalents based on thiols) was dissolved in 49.94 μl PBS and the solution was mixed with 58.3 μl trehalose diacrylate solution (2.33 mg, 0.25 molar equivalents based on thiols) and 41.8 μl TMPE-TGA solution (0.041 mmol thiols) by vortexing. […]

As to `C=CC(=O)OC[C@H]1O[C@H](O[C@H]2O[C@H](COC(=O)C=C)[C@@H](O)[C@H](O)[C@H]2O)[C@H](O)[C@@H](O)[C@@H]1O` [trehalose diacrylate], for the setting “PBS pH7.4, room temperature”, the “solubility in aqueous buffer” value is listed as “soluble in aqueous buffer”. Further, the water solubility result (PBS, room temperature) is on record as “water soluble”.
